Data: patent US3947589A (priority 1971, dated 1976)
Read-outs that look alike come from different tables or passages of the source.

Legend:
[1] = tested on: Piricularia oryzae (rice blast); details: 500 ppm
citrus melanose = test: inhibitory test against Citrus melanose; format: in vivo; details: for pest or weed control at 500 ppm: read-out: Preventive value; for Extent of infection: Table 5, untreated 57; for Extent of infection / Extent infection: 500 ppm, about 2-3 weeks after inoculation; for Extent infection: Table 4, untreated 53
Source text: Experimental example 3 : inhibitory test against Citrus melanose a. Test plant: shoots of about 3 years grown seedlings of citrus "Onshu" (2 - 4 trees planted in about 20 cm claypot) b. Solution used for test
As control fungicide, "Daisen" [trade (trade name, product of Nihon-NohyakuCo., Ltd., wettable powder containing zinc ethylene bis (dithiocarbamate)]was sprayed at 1000 ppm. c. Inoculum and the method of inoculation
In order to prepare suspension of pycnospores, distilled and sterilized water was poured on the culture twigs with citrus melanose in a test tube. The suspension containing about 200 of pycnospores was prepared under the observation of microscope of 150 magnification and then sprayed inoculation on the test plants treated as above. After inoculation, the test plants were placed in the inoculation box at 27°C and relative humidity of above 95% for about 3 days. Then, they were transferred into the greenhouse. […]
d. The method of inspection
About 2 - 3 weeks after inoculation, the entire leaves of shoots was inspected for the development of disease and the state of infection was evaluated on a scale of 0 to 3 as follows:
1 : 1 -- 50 of disease spots
2 : 51 -- 150 of disease spots
3 : above 151 of disease spots
The extent of infection and the preventive value were calculated according to the following equations (I) and (II), respectively. [formula] wherein n1, n2 and n3 are number of leaves inspected to be the states of infection 1, 2 and 3, respectively and N is the total number of leaves. [formula]

[2] = tested on: cucumber downy mildew (Pseudoperonospore cubensis); test: inhibitory test against cucumber downy mildew; format: in vivo; details: for pest or weed control at 500 ppm: Cucumis sativus; for Number of leaves infected (outside) / Number of leaves infected (inside): 23rd of May
Procedure: Experimental example 4 : inhibitory test against cucumber downy mildew
Cucumber seeds (variety "Shinhikari No. A") were planted in seed-beds at the biginning of October, three cucumber seeds being planted per seed-bed, and they were grown in a greenhouse made of vinyl resin. This experiment was performed as three-repeated cultivation.
The test plants treated thus were left to spontaneous infection.

[3] = tested on: Piricularia oryzae (rice blast); test: whole plant or invertebrate; details: Pyricularia oryzae, 48 h, read-out: Preventive value
acute oral toxicity test = details: in vivo
Source text: The results of an acute oral toxicity test of the active ingredient used in the present invention is that its LD50 is about 6 g/kg in the case of N-lauroyl-L-valine. This is an extremely low toxicity.

[4] = Table 5, about 2-3 weeks after inoculation
[5] = read-out: Preventive value (inside)
[6] = read-out: Preventive value (outside)
[7] = Table 7, 500 ppm, four sprays, untreated 13
[8] = Table 7, 500 ppm, four sprays, untreated 15
[9] = Table 1, 50 ml per pot, two days after infection, untreated 33.0
[10] = Table 4, about 2-3 weeks after inoculation
[11] = Table 6, 500 ppm, four sprays, untreated 12
[12] = Table 6, 500 ppm, four sprays, untreated 22
[13] = Table 6, 500 ppm, four sprays, inside of leaves, read-out: Preventive value (inside)
[14] = Table 6, 500 ppm, four sprays, outside of leaves, read-out: Preventive value (outside)
[15] = Table 7, 500 ppm, four sprays, inside of leaves, read-out: Preventive value (inside)
[16] = Table 7, 500 ppm, four sprays, outside of leaves, read-out: Preventive value (outside)

CCCCCCCCCCCCCC(=O)N[C@@H](CCCNC(=N)N)C(=O)OCC [compound 21]
Average number of disease lesions per leaf ([1]; Table 2, untreated 34.2): 8.5 | pest or weed control at 500 ppm (citrus melanose; [4]): 73% | Extent of infection (citrus melanose): 15% | pest or weed control at 500 ppm [2, 5]: 47% | pest or weed control at 500 ppm [2, 6]: 55% | Number of leaves infected (outside) [2, 7]: 5 | Number of leaves infected (inside) [2, 8]: 8 | pest or weed control at 500 ppm [3]: 75%

C=CCCCCCCCCC(=O)N[C@@H](CC(C)C)C(=O)O [compound 14]
Average number of disease lesions per leaf [1, 9]: 5.6 | pest or weed control at 500 ppm (citrus melanose; [10]): 65% | Extent infection (citrus melanose): 19% | pest or weed control at 500 ppm [3]: 83%

CCCCCCCCCCCCCCCCCC(=O)N[C@@H](Cc1ccccc1)C(=O)O [compound 4]
Average number of disease lesions per leaf [1, 9]: 7.3 | pest or weed control at 500 ppm (citrus melanose; [10]): 60% | Extent infection (citrus melanose): 21% | pest or weed control at 500 ppm [2, 5]: 47% | pest or weed control at 500 ppm [2, 6]: 42% | Number of leaves infected (outside) [2, 11]: 7 | Number of leaves infected (inside) [2, 12]: 10 | pest or weed control at 500 ppm [3]: 78%

CCCCCCCCCCCC(=O)N[C@@H](CC(=O)O)C(=O)O [compound 10]
Average number of disease lesions per leaf [1, 9]: 11.6 | pest or weed control at 500 ppm (citrus melanose; [10]): 74% | Extent infection (citrus melanose): 14% | pest or weed control at 500 ppm [3]: 65%

CCCCCCCCCCCC(=O)NCC(=O)O [compound 1]
Average number of disease lesions per leaf [1, 9]: 1.7 | pest or weed control at 500 ppm (citrus melanose; [10]): 72% | Extent infection (citrus melanose): 15% | pest or weed control at 500 ppm [2, 13]: 73% | pest or weed control at 500 ppm [2, 14]: 67% | Number of leaves infected (outside) [2, 11]: 4 | Number of leaves infected (inside) [2, 12]: 6 | pest or weed control at 500 ppm [3]: 95%

CCCCCCCCCCCC(=O)N(C)CC(=O)O [compound 15]
Average number of disease lesions per leaf [1, 9]: 7.4 | pest or weed control at 500 ppm [3]: 88%

CCCCCCCCCCCCCCCCCC(=O)NCC(=O)O [compound 6]
Average number of disease lesions per leaf [1, 9]: 6.6 | pest or weed control at 500 ppm (citrus melanose; [10]): 68% | Extent infection (citrus melanose): 17% | pest or weed control at 500 ppm [3]: 80%

CCCCCCCCCCCCCC(=O)N[C@@H](Cc1c[nH]cn1)C(=O)OC [compound 25]
Average number of disease lesions per leaf ([1]; Table 2, untreated 34.2): 5.1 | pest or weed control at 500 ppm [3]: 85%

CCCCCCCCCCCC(=O)NC(Cc1ccc([N+](=O)[O-])cc1)C(=O)O (centres unmarked) [compound 3]
Average number of disease lesions per leaf [1, 9]: 8.9 | pest or weed control at 500 ppm (citrus melanose; [10]): 50% | Extent infection (citrus melanose): 26% | pest or weed control at 500 ppm [2, 13]: 59% | pest or weed control at 500 ppm [2, 14]: 50% | Number of leaves infected (outside) [2, 11]: 6 | Number of leaves infected (inside) [2, 12]: 9 | pest or weed control at 500 ppm [3]: 73%

CCCCCCCCCCCC(=O)N[C@@H](CCCN)C(=O)OC [compound 24]
Average number of disease lesions per leaf ([1]; Table 2, untreated 34.2): 7.3 | pest or weed control at 500 ppm (citrus melanose; [4]): 68% | Extent of infection (citrus melanose): 18% | pest or weed control at 500 ppm [2, 15]: 47% | pest or weed control at 500 ppm [2, 16]: 52% | Number of leaves infected (outside) [2, 7]: 6 | Number of leaves infected (inside) [2, 8]: 8 | pest or weed control at 500 ppm [3]: 78%

CCCCCCCCCCCC(=O)N[C@H](C(=O)O)C(C)C [No. 2, N-lauroyl-L-valine]
LD50 (acute oral toxicity test): ~6000 mg/kg

CCCCCCCCCCCC(=O)N[C@H](C(=O)OCC)C(C)C [compound 19]
Average number of disease lesions per leaf [1, 9]: 7.3 | pest or weed control at 500 ppm [3]: 78%

CCCCCCCCCCCCCC(=O)N[C@@H](CCC(=O)O)C(=O)O [compound 20]
Average number of disease lesions per leaf [1, 9]: 9.9 | pest or weed control at 500 ppm [3]: 70%

CCCCCCCCCCCC(=O)N[C@H](C(=O)O)C(C)C [compound 2]
Average number of disease lesions per leaf [1, 9]: 6.6 | pest or weed control at 500 ppm [3]: 80%

CCCCCCCCCCCC(=O)NC(Cc1ccccc1)C(=O)O (centres unmarked) [compound 8]
Average number of disease lesions per leaf [1, 9]: 11.0 | pest or weed control at 500 ppm (citrus melanose; [10]): 59% | Extent infection (citrus melanose): 22% | pest or weed control at 500 ppm [2, 13]: 68% | pest or weed control at 500 ppm [2, 14]: 75% | Number of leaves infected (outside) [2, 11]: 3 | Number of leaves infected (inside) [2, 12]: 7 | pest or weed control at 500 ppm [3]: 67%

CCCCCCCCCCCCCC(=O)N[C@@H](CCCCN)C(=O)OC [compound 23]
Average number of disease lesions per leaf ([1]; Table 2, untreated 34.2): 6.2 | pest or weed control at 500 ppm (citrus melanose; [4]): 64% | Extent of infection (citrus melanose): 21% | pest or weed control at 500 ppm [2, 15]: 47% | pest or weed control at 500 ppm [2, 16]: 45% | Number of leaves infected (outside) [2, 7]: 7 | Number of leaves infected (inside) [2, 8]: 8 | pest or weed control at 500 ppm [3]: 82%

CCCCCCCCCCCC(=O)N[C@@H](CCCNC(=N)N)C(=O)OCC [compound 27]
Average number of disease lesions per leaf ([1]; Table 2, untreated 34.2): 6.8 | pest or weed control at 500 ppm (citrus melanose; [4]): 75% | Extent of infection (citrus melanose): 14% | pest or weed control at 500 ppm [2, 15]: 40% | pest or weed control at 500 ppm [2, 16]: 52% | Number of leaves infected (outside) [2, 7]: 6 | Number of leaves infected (inside) [2, 8]: 9 | pest or weed control at 500 ppm [3]: 80%

CCCCCCCCCCCCCCCCCC(=O)NC(C)C(=O)O (centres unmarked) [compound 7]
Average number of disease lesions per leaf [1, 9]: 5.9 | pest or weed control at 500 ppm [2, 13]: 64% | pest or weed control at 500 ppm [2, 14]: 58% | Number of leaves infected (outside) [2, 11]: 5 | Number of leaves infected (inside) [2, 12]: 8 | pest or weed control at 500 ppm [3]: 82%

CCCCCCCCCC(=O)NC(CCSC)C(=O)O (centres unmarked) [compound 16]
Average number of disease lesions per leaf [1, 9]: 11.0 | pest or weed control at 500 ppm (citrus melanose; [10]): 54% | Extent infection (citrus melanose): 24% | pest or weed control at 500 ppm [3]: 67%

CCCCCCCCCCCCCC(=O)NCC(=O)O [compound 9]
Average number of disease lesions per leaf [1, 9]: 9.9 | pest or weed control at 500 ppm [2, 13]: 59% | pest or weed control at 500 ppm [2, 14]: 42% | Number of leaves infected (outside) [2, 11]: 7 | Number of leaves infected (inside) [2, 12]: 9 | pest or weed control at 500 ppm [3]: 70%

CCCCCCCCCCCCCCCCCC(=O)N[C@@H](CCCNC(=N)N)C(=O)OCC [compound 28]
Average number of disease lesions per leaf ([1]; Table 2, untreated 34.2): 7.3 | pest or weed control at 500 ppm (citrus melanose; [4]): 73% | Extent of infection (citrus melanose): 15% | pest or weed control at 500 ppm [3]: 78%

CCCCCCCCCC(=O)N[C@@H](Cc1ccccc1)C(=O)O [compound 12]
Average number of disease lesions per leaf [1, 9]: 11.6 | pest or weed control at 500 ppm [2, 13]: 73% | pest or weed control at 500 ppm [2, 14]: 67% | Number of leaves infected (outside) [2, 11]: 4 | Number of leaves infected (inside) [2, 12]: 6 | pest or weed control at 500 ppm [3]: 65%

CCCCCCCCCCCC(=O)N[C@@H](CC(C)C)C(=O)O [compound 13]
Average number of disease lesions per leaf [1, 9]: 8.9 | pest or weed control at 500 ppm [2, 13]: 59% | pest or weed control at 500 ppm [2, 14]: 42% | Number of leaves infected (outside) [2, 11]: 7 | Number of leaves infected (inside) [2, 12]: 9 | pest or weed control at 500 ppm [3]: 73%

CCCCCCCCCCCC(=O)N[C@@H](CCCNC(N)=O)C(=O)OC [compound 26]
Average number of disease lesions per leaf ([1]; Table 2, untreated 34.2): 6.2 | pest or weed control at 500 ppm [3]: 82%

CCCCCCCCCCCC(=O)N[C@H](C(=O)O)[C@@H](C)O [compound 11]
Average number of disease lesions per leaf [1, 9]: 7.6 | pest or weed control at 500 ppm [3]: 77%

CCCCCCCC/C=C\CCCCCCCC(=O)NCC(=O)O [compound 5]
Average number of disease lesions per leaf [1, 9]: 11.0 | pest or weed control at 500 ppm [3]: 67%
